Measured values reported in patent US5753681A, “Treatment and prophylaxis of pancreatitis” (Sankyo Company, Limited, priority 1996, dated 1998).

Assays:
[1] = Suppression of the decrease in the pancreatic weight in a model of spontaneous chronic pancreatitis; type: in vivo, male WBN/Kob rats; conditions: in feed: pioglitazone 0.05% (25 mg/kg/day), BRL-49653 0.005% (2.5), Compound A 0.005% (3.0); three months; normal 1152 ± 43, control 680 ± 26; ***p < 0.001 (pioglitazone, BRL-49653), **p < 0.01 (Compound A)
From the text: The test animals were male WBN/Kob rats, which are commonly used as models of spontaneous chronic pancreatitis and suffer pancreatic weight loss and dysfunction of the exocrine pancreatic tissue due to degeneration and necrosis of the pancreatic parenchyma and its replacement by connective tissue [Tsuchitani et al., Laboratory Animals, 19(3), 200-207, (1985)]. Each group of test animals contained 4 animals, and the animals were used for the experiment when they had reached 12 weeks old. The animals were fed with powdered feed F2 mixed with 0.2% of troglitazone for three months. This group is hereinafter referred to as "the treated group". The average dose of the compound during this period was 140 mg/kg/day. Meanwhile, another four rats (control group) were fed with the powdered feed F2 only. After the rats had been fed with the feeds for three months, the pancreas of each animal was totally enucleated and its weight was measured.
(§1) The procedure described in Example 2 was repeated, except that the test compound was pioglitazone ("the pioglitazone group"), BRL-49653 ("the BRL-49653 group"), or Compound A ("the Compound A group").

[2] = Histopathology of pancreatic tissue of Example 3: total cross-sectional area and cicatrized area; type: in vivo, male WBN/Kob rats; conditions: doses of Example 3
Procedure: The measurement of the cicatrized area may also be carried out by conventional procedures. More specifically, male WBN/Kob rats are used as models of spontaneous chronic pancreatitis and are fed with a powdered feed admixed with a test compound. The pancreas of each animal is then totally enucleated. Its weight is measured and also the cicatrized area is measured relative to the total cross-sectional area of the pancreas tissue sliced by an image analyser.
as §1
In order to evaluate the results of Example 2 histopathologically, each pancreas used for weight measurement in Example 2 was fixed in 10% neutral formalin. It was then divided into a spleen side half and a duodenum side half, and each half was sliced at 3 mm intervals to provide cross-sectional tissue pieces. All of these tissue pieces were subjected to paraffin sectioning by conventional procedures and then to hematoxylin-eosin staining and Masson's trichrome staining to prepare two tissue preparations, which were used for histopathological examination. The total cross-sectional area of the pancreatic tissue piece on each preparation was measured using an image analyser (SPICCAII, manufactured by Olympus Optical Co., Ltd.).
In addition, the surface area of the zone which had undergone degeneration and necrosis and in which the exocrine pancreatic tissue was replaced with connective tissue (the cicatrized area) was measured using an image analyser.
In order to evaluate the results of Example 3 histopathologically, the total cross-sectional area and cicatrized area of each pancreas whose weight was measured in Example 3 was measured by the procedure described in Example 4.

Acute toxicity = type: in vivo, ddY mice (male); conditions: oral dose of 300 mg/kg or more
Procedure: Acute toxicity was assayed by conventional procedures. […] At the end of this time, the animals were all alive. When the acute toxicities of Compounds No. 2, 3, 4 and 10 were measured in the same manner, the mice were all alive after an oral dose of 300 mg/kg or more.

[3] = duodenum side, control 5.52 ± 0.86, **p < 0.01 all three
[4] = duodenum side, control 90.3 ± 14.9
[5] = spleen side pancreatic half, control 8.11 ± 0.76, *p < 0.05 pioglitazone, **p < 0.01 Compound A
[6] = spleen side pancreatic half, control 99.3 ± 9.8, **p < 0.01 pioglitazone, *p < 0.05 BRL-49653

Structure (SMILES)	Pancreatic weight [1]	Cicatrized area in the exocrine pancreatic tissue [2, 3]	Total cross-sectional area of pancreatic tissue piece [2, 4]	Cicatrized area in the exocrine pancreatic tissue [2, 5]	Total cross-sectional area of pancreatic tissue piece [2, 6]	Survival (acute toxicity) (Acute toxicity)
CN(CCOc1ccc(CC2SC(=O)NC2=O)cc1)c1ccccn1 (stereo not shown) [BRL-49653, 5-[4-{2-[N-Methyl-N-(pyridin-2-yl)amino]ethoxy}benzyl]-thiazolidine-2,4-dione]	976 ± 51 mg	1.21 ± 0.40 mm^2	100.9 ± 2.1 mm^2	5.40 ± 1.35 mm^2	147.2 ± 14.2 mm^2	
CC(=NOCCOc1ccc(CC2SC(=O)NC2=O)cc1)c1ccc(-c2ccccn2)cc1 (stereo not shown) [Compound A, 5-(4-{2-[1-(4-2'-pyridylphenyl)ethylideneaminooxy]ethoxy}-benzyl)thiazolidine-2,4-dione]	853 ± 44 mg	1.17 ± 0.15 mm^2	90.3 ± 10.2 mm^2	2.62 ± 0.51 mm^2	100.8 ± 12.5 mm^2	
CCc1ccc(CCOc2ccc(CC3SC(=O)NC3=O)cc2)nc1 (stereo not shown) [Pioglitazone, 5-{4-[2-(5-Ethylpyridin-2-yl)ethoxy]benzyl}thiazolidine-2,4-dione]	982 ± 52 mg	1.12 ± 0.26 mm^2	122.0 ± 9.8 mm^2	4.98 ± 1.03 mm^2	157.8 ± 16.1 mm^2	
Cc1c(C)c2c(c(C)c1O)CCC(COc1ccc(CC3SC(=O)NC3=O)cc1)O2 (stereo not shown) [compound 2]						all alive
CC1(COc2ccc(CC3SC(=O)NC3=O)cc2)CCc2cc(O)ccc2O1 (stereo not shown) [compound 3]						all alive
CC1(COc2ccc(CC3SC(=O)NC3=O)cc2)CCc2cc(O)c(C(C)(C)C)cc2O1 (stereo not shown) [compound 4, 5-[4-(6-Hydroxy-2-methyl-7-t-butylchroman-2-ylmethoxy)benzyl]thiazolidine-2,4-dione]						all alive
CCOC(=O)Oc1c(C)c(C)c2c(c1C)CCC(C)(COc1ccc(CC3SC(=O)NC3=O)cc1)O2 (stereo not shown) [compound 10, 5-[4-(6-Ethoxycarbonyloxy-2,5,7,8-tetramethylchroman-2-ylmethoxy)benzyl]-thiazolidine-2,4-dione]						all alive
